One block for each molecule: values may come before it.
Target: T1, human Nav1.7 (hNav1.7) (Homo sapiens, UniProt Q15858)
T1 construct: expressed in transfected cells
Assay: hNav1.7 whole-cell patch-clamp electrophysiology (automated PatchXpress 7000A or manual) in stably expressing 293 cells
Assay type: cell-based
Settings: human Nav1.7 stably expressed in 293 cells; whole-cell patch clamp; average IC50 from Hill fit
Method in brief: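 Stably transfected 293 cells lacking endogenous sodium channels; peak current evoked by depolarizing pulses during increasing compound concentrations, automated at ~20% fractional inactivation, or manually at −140 mV (resting) and ~20% inactivation. Block taken at steady state, corrected for rundown; IC50 by Hill fit.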

T1 sequence (Q15858 whole entry): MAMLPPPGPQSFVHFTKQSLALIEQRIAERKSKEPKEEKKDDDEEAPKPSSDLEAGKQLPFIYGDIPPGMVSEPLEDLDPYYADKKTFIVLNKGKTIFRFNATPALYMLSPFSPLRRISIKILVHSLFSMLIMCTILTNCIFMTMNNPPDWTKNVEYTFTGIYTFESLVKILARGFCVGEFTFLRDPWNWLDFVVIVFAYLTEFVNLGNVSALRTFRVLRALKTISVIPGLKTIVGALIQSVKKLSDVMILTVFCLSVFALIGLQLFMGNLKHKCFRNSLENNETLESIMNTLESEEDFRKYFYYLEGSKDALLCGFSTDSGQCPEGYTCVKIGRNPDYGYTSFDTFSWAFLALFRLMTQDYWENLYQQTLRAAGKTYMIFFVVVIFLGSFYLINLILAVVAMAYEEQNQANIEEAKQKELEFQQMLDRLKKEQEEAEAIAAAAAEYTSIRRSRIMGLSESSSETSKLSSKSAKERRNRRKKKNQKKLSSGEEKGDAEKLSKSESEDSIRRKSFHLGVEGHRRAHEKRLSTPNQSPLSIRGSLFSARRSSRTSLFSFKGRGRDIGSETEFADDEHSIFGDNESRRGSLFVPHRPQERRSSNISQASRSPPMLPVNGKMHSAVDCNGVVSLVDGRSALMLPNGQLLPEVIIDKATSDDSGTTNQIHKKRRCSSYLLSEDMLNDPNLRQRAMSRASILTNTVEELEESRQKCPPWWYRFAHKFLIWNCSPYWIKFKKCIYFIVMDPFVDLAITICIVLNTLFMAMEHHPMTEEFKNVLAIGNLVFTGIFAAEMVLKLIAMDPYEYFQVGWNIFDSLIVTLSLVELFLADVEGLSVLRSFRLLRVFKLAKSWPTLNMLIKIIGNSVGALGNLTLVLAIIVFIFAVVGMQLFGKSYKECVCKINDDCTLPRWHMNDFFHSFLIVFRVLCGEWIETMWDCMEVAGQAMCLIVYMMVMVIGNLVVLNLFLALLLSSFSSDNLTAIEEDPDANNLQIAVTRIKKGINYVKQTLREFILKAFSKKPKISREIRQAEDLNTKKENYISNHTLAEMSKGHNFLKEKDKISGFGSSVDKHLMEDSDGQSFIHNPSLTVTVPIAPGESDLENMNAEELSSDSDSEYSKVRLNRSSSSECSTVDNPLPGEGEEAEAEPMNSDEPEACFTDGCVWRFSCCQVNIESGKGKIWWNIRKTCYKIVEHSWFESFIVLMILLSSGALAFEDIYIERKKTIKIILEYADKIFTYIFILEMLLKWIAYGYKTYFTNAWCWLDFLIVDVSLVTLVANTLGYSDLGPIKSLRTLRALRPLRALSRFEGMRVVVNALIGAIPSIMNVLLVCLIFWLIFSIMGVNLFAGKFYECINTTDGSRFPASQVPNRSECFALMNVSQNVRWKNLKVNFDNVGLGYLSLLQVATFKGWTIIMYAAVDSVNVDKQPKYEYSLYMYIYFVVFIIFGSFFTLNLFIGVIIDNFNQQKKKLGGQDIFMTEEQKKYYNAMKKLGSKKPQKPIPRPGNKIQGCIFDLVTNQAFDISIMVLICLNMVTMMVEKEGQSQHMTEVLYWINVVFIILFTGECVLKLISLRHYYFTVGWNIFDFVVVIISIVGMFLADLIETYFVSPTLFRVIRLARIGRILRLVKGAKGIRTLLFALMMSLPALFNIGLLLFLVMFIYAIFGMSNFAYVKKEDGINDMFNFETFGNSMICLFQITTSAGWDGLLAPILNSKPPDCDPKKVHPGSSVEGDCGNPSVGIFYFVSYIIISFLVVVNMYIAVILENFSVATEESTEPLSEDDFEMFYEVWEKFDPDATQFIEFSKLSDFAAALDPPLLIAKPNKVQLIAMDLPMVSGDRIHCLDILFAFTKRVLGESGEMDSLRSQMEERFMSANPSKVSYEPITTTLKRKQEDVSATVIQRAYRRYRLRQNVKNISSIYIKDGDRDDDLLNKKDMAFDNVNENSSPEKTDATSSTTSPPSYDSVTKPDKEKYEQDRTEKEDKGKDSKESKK

SMILES: CNC(=O)c1cccc(Nc2nccc(N3CC(Oc4ccc(OC)cc4)C3)n2)c1 [Example D, 3-((4-(3-(4-methoxyphenoxy)-1-azetidinyl)-2-pyrimidinyl)amino)-N-methylbenzamide]
- IC50: 0.43 µM

SMILES: CNC(=O)c1cccc(Nc2nccc(N3CC(Oc4ccc(F)c(F)c4)C3)n2)c1 [Example E, 3-((4-(3-(3,4-difluorophenoxy)-1-azetidinyl)-2-pyrimidinyl)amino)-N-methylbenzamide]
- IC50: 1.6 µM

SMILES: CNC(=O)c1cccc(Nc2nccc(N3CC(Oc4ccc(F)c(Cl)c4)C3)n2)c1 [Example F, 3-((4-(3-(3-chloro-4-fluorophenoxy)-1-azetidinyl)-2-pyrimidinyl)amino)-N-methylbenzamide]
- IC50: 2.83 µM

SMILES: CNC(=O)c1cccc(Nc2nccc(N3CC(Oc4ccc(F)cc4F)C3)n2)c1 [Example H, 3-((4-(3-(2,4-difluorophenoxy)-1-azetidinyl)-2-pyrimidinyl)amino)-N-methylbenzamide]
- IC50: 2.16 µM

SMILES: CNC(=O)c1cccc(Nc2nccc(N3CC(Oc4ccc(F)cc4C)C3)n2)c1 [Example J, 3-((4-(3-(4-fluoro-2-methylphenoxy)-1-azetidinyl)-2-pyrimidinyl)amino)-N-methylbenzamide]
- IC50: 0.08 µM

SMILES: CNC(=O)c1cccc(Nc2nccc(N3CC(Oc4ccc(Cl)c(F)c4)C3)n2)c1 [Example K, 3-((4-(3-(4-chloro-3-fluorophenoxy)-1-azetidinyl)-2-pyrimidinyl)amino)-N-methylbenzamide]
- IC50: 0.74 µM

SMILES: CNC(=O)c1cccc(Nc2nccc(N3CC(Oc4ccc(Cl)c(C)c4)C3)n2)c1 [Example L, 3-((4-(3-(4-chloro-3-methylphenoxy)-1-azetidinyl)-2-pyrimidinyl)amino)-N-methylbenzamide]
- IC50: 0.31 µM

SMILES: CNC(=O)c1cccc(Nc2nccc(N3CC(Oc4ccc(Cl)cc4C)C3)n2)c1 [Example N, 3-((4-(3-(4-chloro-2-methylphenoxy)-1-azetidinyl)-2-pyrimidinyl)amino)-N-methylbenzamide]
- IC50: 0.26 µM

SMILES: CNC(=O)c1cccc(Nc2ncnc(N3CC(Oc4ccc(Cl)cc4F)C3)n2)c1 [Example Q, 3-(4-(3-(4-chloro-2-fluorophenoxy)azetidin-1-yl)-1,3,5-triazin-2-ylamino)-N-methylbenzamide]
- IC50: 2.99 µM

SMILES: CNC(=O)c1cc(F)cc(Nc2ncnc(N3CC(Oc4ccc(Cl)cc4F)C3)n2)c1 [Example S, 3-(4-(3-(4-chloro-2-fluorophenoxy)azetidin-1-yl)-1,3,5-triazin-2-ylamino)-5-fluoro-N-methylbenzamide]
- IC50: > 30 µM

SMILES: CNC(=O)c1cccc(Nc2cc(N3CC(Oc4ccc(Cl)cc4F)C3)ccn2)c1 [Example T, 3-(4-(3-(4-chloro-2-fluorophenoxy)azetidin-1-yl)pyridin-2-ylamino)-N-methylbenzamide]
- IC50: 4.5 µM

SMILES: CNC(=O)c1cccc(Nc2nc(C)nc(N3CC(Oc4ccc(Cl)cc4F)C3)n2)c1 [Example U, 3-(4-(3-(4-chloro-2-fluorophenoxy)azetidin-1-yl)-6-methyl-1,3,5-triazin-2-ylamino)-N-methylbenzamide]
- IC50: > 30 µM

SMILES: CNC(=O)c1cccc(Nc2ccnc(N3CC(Oc4ccc(F)cc4)C3)c2)c1 [Example V, 3-((2-(3-(4-fluorophenoxy)-1-azetidinyl)-4-pyridinyl)amino)-N-methylbenzamide]
- IC50: 5.78 µM

SMILES: CNC(=O)c1cc(Nc2cccc(N3CC(Oc4ccc(Cl)cc4F)C3)n2)ccc1F [Example X, 5-((6-(3-(4-chloro-2-fluorophenoxy)-1-azetidinyl)-2-pyridinyl)amino)-2-fluoro-N-methylbenzamide]
- IC50: 4.46 µM

SMILES: CNC(=O)c1cccc(Nc2cc(N3CC(Oc4ccc(Cl)cc4F)C3)ncn2)c1 [Example Z, 3-((6-(3-(4-chloro-2-fluorophenoxy)-1-azetidinyl)-4-pyrimidinyl)amino)-N-methylbenzamide]
- IC50: 12.7 µM

Now from value to molecule:

- IC50: 0.34 µM
SMILES: CNC(=O)c1cccc(Nc2nc(N3CC(Oc4ccc(F)cc4)C3)ncc2F)c1 [Example AH, 3-((5-fluoro-2-(3-(4-fluorophenoxy)-1-azetidinyl)-4-pyrimidinyl)amino)-N-methylbenzamide]

- IC50: 1.44 µM
SMILES: CNC(=O)c1cccc(Nc2nccc(N3CCc4cc(OCC(F)(F)F)ccc4C3)n2)c1 [Example AI, N-methyl-3-((4-(6-(2,2,2-trifluoroethoxy)-3,4-dihydro-2(1H)-isoquinolinyl)-2-pyrimidinyl)amino)benzamide]

- IC50: 2.26 µM
SMILES: CNC(=O)c1cccc(Nc2ccnc(N3CC(Oc4ccc(Cl)cc4F)C3)n2)c1 [Example AJ, 3-((2-(3-(4-chloro-2-fluorophenoxy)-1-azetidinyl)-4-pyrimidinyl)amino)-N-methylbenzamide]

- IC50: 0.43 µM
SMILES: CNC(=O)c1cccc(Nc2nc(N3CC(Oc4ccc(Cl)cc4F)C3)ncc2F)c1 [Example AK, 3-((2-(3-(4-chloro-2-fluorophenoxy)-1-azetidinyl)-5-fluoro-4-pyrimidinyl)amino)-N-methylbenzamide]

- IC50: 2 µM
SMILES: CNC(=O)c1cccc(Nc2nccc(N3CC(Oc4ccc(C)cc4)C3)n2)c1 [Example B, N-methyl-3-((4-(3-(4-methylphenoxy)-1-azetidinyl)-2-pyrimidinyl)amino)benzamide]

- IC50: 1.55 µM
SMILES: CNC(=O)c1cccc(Nc2nccc(N3CC(Oc4ccc(C(F)(F)F)cc4)C3)n2)c1 [Example C, N-methyl-3-((4-(3-(4-(trifluoromethyl)phenoxy)-1-azetidinyl)-2-pyrimidinyl)amino)benzamide]

- IC50: 1.41 µM
SMILES: CNC(=O)c1cccc(Nc2nccc(N3CC(Oc4ccc(F)c(C)c4)C3)n2)c1 [Example G, 3-((4-(3-(4-fluoro-3-methylphenoxy)-1-azetidinyl)-2-pyrimidinyl)amino)-N-methylbenzamide]

- IC50: 0.63 µM
SMILES: CNC(=O)c1cccc(Nc2nccc(N3CC(Oc4ccc(F)cc4Cl)C3)n2)c1 [Example I, 3-((4-(3-(2-chloro-4-fluorophenoxy)-1-azetidinyl)-2-pyrimidinyl)amino)-N-methylbenzamide]

- IC50: 2.3 µM
SMILES: CNC(=O)c1cccc(Nc2nccc(N3CC(Oc4ccc(Cl)cc4F)C3)n2)c1 [Example M, 3-((4-(3-(4-chloro-2-fluorophenoxy)-1-azetidinyl)-2-pyrimidinyl)amino)-N-methylbenzamide]

- IC50: 2.55 µM
SMILES: CNC(=O)c1cccc(Nc2nccc(N3CC(COc4ccc(Cl)cc4)C3)n2)c1 [Example O, 3-((4-(3-((4-chlorophenoxy)methyl)-1-azetidinyl)-2-pyrimidinyl)amino)-N-methylbenzamide]

- IC50: 1.14 µM
SMILES: CCNC(=O)c1cccc(Nc2ncnc(N3CC(Oc4ccc(Cl)cc4F)C3)n2)c1 [Example R, 3-(4-(3-(4-chloro-2-fluorophenoxy)azetidin-1-yl)-1,3,5-triazin-2-ylamino)-N-ethylbenzamide]

- IC50: 2.78 µM
SMILES: CNC(=O)c1cccc(Nc2cccc(N3CC(Oc4ccc(Cl)cc4F)C3)n2)c1 [Example W, 3-((6-(3-(4-chloro-2-fluorophenoxy)-1-azetidinyl)-2-pyridinyl)amino)-N-methylbenzamide]
